What was measured:
luminal B tumor patients = assay: Kaplan Meier analysis of distant metastasis free survival (DMFS), luminal B tumor patients; type: in vivo, human; conditions: for distant metastasis free survival: adjusted for number of metastatic lymph nodes, tumor size and histologic type, 5 years; for distant metastasis free survival (DMFS): 5 year time point
Text: FIG. 12 depicts a Kaplan Meier analysis of distant metastasis free survival (DMFS) of luminal B tumor patients. A: When defined by RT-qPCR, luminal B patients have a higher probability to remain free of distant metastasis when treated with docetaxel-FEC as compared to vinorelbine-FEC (89% vs. 78% respectively, HR 0.471; CI 0.263-0.843). B: When luminal B tumors are defined by IHC, survival differences are not observed between different treatment regimens (87% vs. 86%, HR 0.938 CI 0.474-1.856).
FIG. 13 depicts a Kaplan Meier analysis of distant metastasis free survival of patients with luminal B tumors, adjusted for number of metastatic lymph nodes, tumor size and histologic type by Cox Regression as specified in the SAP. A: By using the subtyping assay of the present invention the effect remains significant (90 vs. 78%, HR 0.409; CI 0.219-0.764). B: By contrast there is no effect when tumor subtyping occurs by IHC (89% vs. 85%, HR 0.674; CI 0.307-1.481).
(§1) For the evaluation of breast tumors, 855 out of 1010 breast cancer patients of the FinHER study (Joensuu et al. (2006), N Engl J Med, 354:809-820) could be used. The mean cut-off values (given as 40-ΔCT values) were as follows: HER2: 38; ESR1: 34; PGR: 30,2; Ki67: 31.7; and RACGAP1: 34.2. The cut-off values for HER2 and ESR1 were determined based on evaluation of previous studies (Koutras et al. (2008), Brit. J. of Cane., 99:1775-1785; Pentheroudakis et al. (2009), Breast Cancer Res Treat 2009, 116:131-143) using 268 samples and were applied to the FinHER study (proportional hazards model validation). CALM2 served as reference gene.
(§2) FIGS. 10 to 19 depict Kaplan-Meier survival curves for different tumor subtypes (luminal B, HER2-positive, luminal A, and triple-negative breast cancer [TNBC]) treated with different chemotherapy agents (docetaxel or vinorelbine). Subytpes defined by RT-qPCR according to the present invention are shown in panel A, whereas subtypes defined by IHC are shown in panel B. Dotted lines mark the 5 year time point for outcome calculations.

HER2-positive tumors = assay: Kaplan Meier analysis of distant metastasis free survival, HER2-positive tumors; type: in vivo, human; conditions: for HR, DMFS: docetaxel vs vinorelbine; for distant metastasis free survival: 5 year time point
Protocol: FIG. 15 depicts a Kaplan Meier analysis of distant metastasis free survival of HER2-positive tumors.
as §1, §2

TNBC tumor patients [1] = assay: Kaplan Meier analysis of distant metastasis free survival, TNBC tumor patients; type: in vivo, human; conditions: for distant metastasis free survival: 5 year time point; for HR, DMFS: docetaxel vs vinorelbine
Text: FIG. 19 depicts a Kaplan Meier analysis of distant metastasis free survival of TNBC tumor patients. […] B: IHC-defined TNBC patients show a weak, yet non-significant trend towards longer distant metastasis free survival (82% vs. 72%, HR 0.615; CI 0.284-1,333) when treated with docetaxel as compared to vinorelbine.
as §1, §2

[2] = tested on: patients with luminal B tumors; assay: Kaplan Meier analysis of overall survival, FinHER patients with luminal B tumors; type: in vivo, human; set-up: overall survival: concentration or dose not given beside the values; conditions: for HR, overall survival: docetaxel vs vinorelbine
Text: FIG. 10 depicts a Kaplan Meier analysis of the overall survival of patients with luminal B tumors. […] B: en the tumor subtype is defined by IHC, the benefit of docetaxel for luminal B patients cannot be shown (95% vs. 92%, HR 0.617; CI 0.235-1.623).
FIG. 11 depicts a Kaplan Meier analysis of the overall survival of patients with luminal B tumors, adjusted for tumor histologic type by Cox Regression as specified in the SAP. A: The prediction of the docetaxel benefit by RT-qPCR kit remains significant (97% vs. 88%, HR 0.232; CI 0.087-0.624). B: Subtyping by IHC is not predictive for a docetaxel benefit (96% vs. 92%, HR 0.510; CI 0.184-1.414).
as §1, §2

[3] = tested on: HER2-positive tumor patients; assay: Kaplan Meier analysis of overall survival, HER2-positive tumor patients; type: in vivo, human; conditions: for HR, overall survival: docetaxel vs vinorelbine; for overall survival: 5 year time point
Text: FIG. 14 depicts a Kaplan Meier analysis of the overall survival of HER2-positive tumor patients. […] B: Similar results are shown for tumors subtyped by IHC (86% vs. 89%, HR 1.175; CI 0.518-2.663).
as §1, §2

TNBC tumor patients [4] = assay: Kaplan Meier analysis of overall survival, TNBC tumor patients; type: in vivo, human; conditions: for HR, overall survival: docetaxel vs vinorelbine; for overall survival: 5 year time point
Text: FIG. 18 depicts a Kaplan Meier analysis of overall survival of TNBC tumor patients. […] B: When defined by IHC, TNBC patients show a weak, yet non-significant trend towards longer overall survival (88% vs. 80%, HR 0.552; CI 0.207-1.472).
as §1, §2

luminal A tumors = assay: Kaplan Meier analysis of overall survival, luminal A tumors; type: in vivo, human; conditions: for HR, overall survival: docetaxel vs vinorelbine; for overall survival: 5 year time point
Text: FIG. 16 depicts a Kaplan Meier analysis of overall survival of luminal A tumors. […] B: By contrast, when defined by IHC, luminal A patients show a weak, yet non-significant trend towards longer overall survival (97 vs. 93% HR 0.443; CI 0.114-1.716) when treated with docetaxel as compared to vinorelbine.
as §1, §2

[5] = FinHER clinical trial; docetaxel compared with vinorelbine; cited from earlier work
luminal A tumor patients = assay: Kaplan Meier analysis of distant metastasis free survival, luminal A tumor patients; type: in vivo, human; conditions: for HR, DMFS: docetaxel vs vinorelbine; for distant metastasis free survival: 5 year time point
Protocol: FIG. 17 depicts a Kaplan Meier analysis of distant metastasis free survival of luminal A tumor patients.
as §1, §2

[6] = FIG. 15A, HER2-positive defined by method of the invention (RT-qPCR)
[7] = FIG. 15B, HER2-positive defined by IHC
[8] = FIG. 10B, luminal B defined by IHC, 5 year time point
[9] = FIG. 11A, luminal B by RT-qPCR, adjusted for tumor histologic type by Cox Regression, 5 years
[10] = FIG. 11B, luminal B by IHC, adjusted for tumor histologic type by Cox Regression, 5 years
[11] = FIG. 14A, HER2-positive defined by RT-qPCR
[12] = FIG. 14B, HER2-positive subtyped by IHC
[13] = FIG. 18A, TNBC defined by RT-qPCR
[14] = FIG. 16A, luminal A defined by RT-qPCR
[15] = FIG. 16B, luminal A defined by IHC
[16] = FIG. 17A, luminal A defined by RT-qPCR
[17] = FIG. 17B, luminal A IHC-subtyped
[18] = FIG. 12A, luminal B defined by RT-qPCR
[19] = FIG. 12B, luminal B defined by IHC
[20] = FIG. 10A, luminal B defined by RT-qPCR, 5 year time point, combined with FEC

Row | Molecule | distant metastasis free survival (luminal B tumor patients; FIG. 13A, luminal B by RT-qPCR) [%] | distant metastasis free survival (luminal B tumor patients; FIG. 13B, luminal B by IHC) [%] | distant metastasis free survival (HER2-positive tumors; [6]) [%] | distant metastasis free survival (HER2-positive tumors; [7]) [%] | distant metastasis free survival (TNBC tumor patients [1]; FIG. 19A, RT-qPCR-defined TNBC) [%] | distant metastasis free survival (TNBC tumor patients [1]; FIG. 19B, IHC-defined TNBC) [%] | overall survival [2, 8] [%] | overall survival [2, 9] [%] | overall survival [2, 10] [%] | overall survival [3, 11] [%] | overall survival [3, 12] [%] | overall survival (TNBC tumor patients [4]; [13]) [%] | overall survival (TNBC tumor patients [4]; FIG. 18B, TNBC defined by IHC) [%] | overall survival (luminal A tumors; [14]) [%] | overall survival (luminal A tumors; [15]) [%] | distant metastasis free survival (luminal A tumor patients; [16]) [%] | distant metastasis free survival (luminal A tumor patients; [17]) [%] | distant metastasis free survival (DMFS) (luminal B tumor patients; [18]) [%] | distant metastasis free survival (DMFS) (luminal B tumor patients; [19]) [%] | overall survival [2, 20] [%] | other results
1 | CC(=O)O[C@@]12CO[C@@H]1C[C@H](O)[C@@]1(C)C(=O)[C@H](O)C3=C(C)[C@@H](OC(=O)[C@H](O)[C@@H](NC(=O)OC(C)(C)C)c4ccccc4)C[C@@](O)([C@@H](OC(=O)c4ccccc4)[C@H]21)C3(C)C [docetaxel] | 90 | 89 | 80 | 78 | 74 | 82 | 95 | 97 | 96 | 87 | 86 | 84 | 88 | 95 | 97 | 92 | 93 | – | – | – | HR, DMFS (luminal B tumor patients; FIG. 13A, luminal B by RT-qPCR, adjusted for metastatic lymph nodes, tumor size, histologic type, docetaxel vs vinorelbine): 0.409; HR, DMFS (luminal B tumor patients; FIG. 13B, luminal B by IHC, adjusted for metastatic lymph nodes, tumor size, histologic type, docetaxel vs vinorelbine): 0.674; HR, DMFS (HER2-positive tumors; FIG. 15A, HER2-positive by RT-qPCR): 1.070; HR, DMFS (HER2-positive tumors; FIG. 15B, HER2-positive by IHC): 0.975; HR, DMFS (TNBC tumor patients [1]; FIG. 19A, TNBC by RT-qPCR): 1.211; HR, DMFS (TNBC tumor patients [1]; FIG. 19B, TNBC by IHC): 0.615; HR, overall survival ([2]; FIG. 10B, luminal B defined by IHC): 0.617; HR, overall survival ([2]; FIG. 11A, luminal B by RT-qPCR, adjusted for tumor histologic type): 0.232; HR, overall survival ([2]; FIG. 11B, luminal B by IHC, adjusted for tumor histologic type): 0.510; benefit of docetaxel treatment ([2]; luminal B tumors classified by RT-qPCR, FIGS. 10 to 19, vs vinorelbine, combined with FEC): significant benefit; HR, overall survival ([3]; FIG. 14A, HER2-positive by RT-qPCR): 1.320; HR, overall survival ([3]; FIG. 14B, HER2-positive by IHC): 1.175; HR, overall survival (TNBC tumor patients [4]; FIG. 18A, TNBC by RT-qPCR): 0.949; HR, overall survival (TNBC tumor patients [4]; FIG. 18B, TNBC by IHC): 0.552; HR, overall survival (luminal A tumors; FIG. 16A, luminal A by RT-qPCR): 2.471; HR, overall survival (luminal A tumors; FIG. 16B, luminal A by IHC): 0.443; outcome compared to vinorelbine (luminal A tumors; luminal A tumors by RT-qPCR, effect does not reach statistical significance): even inferior to vinorelbine; adverse effects [5]: more commonly associated with adverse effects; HR, DMFS (luminal A tumor patients; FIG. 17A, luminal A by RT-qPCR): 0.826; HR, DMFS (luminal A tumor patients; FIG. 17B, luminal A by IHC): 0.553
2 | CCC1=C[C@@H]2CN(C1)Cc1c([nH]c3ccccc13)[C@@](C(=O)OC)(c1cc3c(cc1OC)N(C)[C@H]1[C@@](O)(C(=O)OC)[C@H](OC(C)=O)[C@]4(CC)C=CCN5CC[C@]31[C@@H]54)C2 [vinorelbine] | 78 | 85 | 81 | 77 | 78 | 72 | – | 88 | 92 | 91 | 89 | 83 | 80 | 98 | 93 | 90 | 88 | – | – | – | –
3 | docetaxel | – | – | – | – | – | – | – | – | – | – | – | – | – | – | – | – | – | 89 | 87 | 97 | HR, DMFS (luminal B tumor patients; FIG. 12A, luminal B defined by RT-qPCR, docetaxel-FEC vs vinorelbine-FEC): 0.471; HR, DMFS (luminal B tumor patients; FIG. 12B, luminal B defined by IHC, docetaxel-FEC vs vinorelbine-FEC): 0.938; Hazard Ratio [HR], overall survival ([2]; FIG. 10A, luminal B defined by RT-qPCR, docetaxel-FEC vs vinorelbine-FEC): 0.241
4 | vinorelbine | – | – | – | – | – | – | 92 | – | – | – | – | – | – | – | – | – | – | 78 | 86 | 89 | –

— patent US10808283B2, “Methods and kits for the molecular subtyping of tumors” (BioNTech Diagnostics GmbH, priority 2013, dated 2020)
